Changes are numbered by the printed parent chain. Numbers in names are those of the source.
Columns and labels:
[1] = target: S. cerevisiae ZWF1 variant A51D (mutant 4) (Saccharomyces cerevisiae, UniProt P11412, A51D); assay: Cofactor preference of ZWF1 mutants (NAD+ vs NADP+); format: biochemical; settings: initial kinetic screening, preliminary cofactor phenotype
Protocol: (§1) Strain BY4742 zwf1 (ATCC Cat. No. 4011971; Winzeler E A, et al. Science 285: 901-906, 1999. PubMed: 10436161) was used as the base strain for all ZWF1 assays. The assays were performed as follows: A 5 ml overnight of the strain expressing the ZWF1 gene was grown in SCD-ura. A 50 ml culture of the strain was then grown for about 18 hours from an initial OD600 of about 0.2 until it had reached about OD600 of about 4. The cells were centrifuged at 1046×g washed twice with 25 ml cold sterile water, and resuspended in 2 ml/g Yper Plus (Thermo Scientific) plus 1×protease inhibitors (EDTA-free). The cells were allowed to lyse at room temperature for about 30 minutes with constant rotation of the tubes. The lysate was centrifuged at 16,100×g for 10 minutes at 4° C. and the supernatants were transferred to a new 1.5 ml microcentrifuge tube. Quantification of the lysates was performed using the Coomassie-Plus kit (Thermo Scientific, San Diego, Calif.) as directed by the manufacturer.
(§2) The reaction was started with 20 mM glucose-6-phosphate and the reaction was monitored at A340. The specific activity was measured as the μmol substrate/min/mg protein.
Site-directed mutagenesis was used to alter of ZWF1 so that the altered ZWF1 could also utilize NAD+, thereby improving the REDOX balance within the cell. […]

[2] = target: S. cerevisiae ZWF1 (glucose-6-phosphate dehydrogenase) variant A24G (mutant 1) (Saccharomyces cerevisiae, UniProt P11412, A24G); assay: Cofactor usage of ZWF1 mutants (initial kinetic screening, NAD+ vs NADP+); format: biochemical; settings: preliminary cofactor phenotype
Chain of S. cerevisiae ZWF1 (glucose-6-phosphate dehydrogenase) variant A24G (mutant 1) (P11412 whole entry A24G): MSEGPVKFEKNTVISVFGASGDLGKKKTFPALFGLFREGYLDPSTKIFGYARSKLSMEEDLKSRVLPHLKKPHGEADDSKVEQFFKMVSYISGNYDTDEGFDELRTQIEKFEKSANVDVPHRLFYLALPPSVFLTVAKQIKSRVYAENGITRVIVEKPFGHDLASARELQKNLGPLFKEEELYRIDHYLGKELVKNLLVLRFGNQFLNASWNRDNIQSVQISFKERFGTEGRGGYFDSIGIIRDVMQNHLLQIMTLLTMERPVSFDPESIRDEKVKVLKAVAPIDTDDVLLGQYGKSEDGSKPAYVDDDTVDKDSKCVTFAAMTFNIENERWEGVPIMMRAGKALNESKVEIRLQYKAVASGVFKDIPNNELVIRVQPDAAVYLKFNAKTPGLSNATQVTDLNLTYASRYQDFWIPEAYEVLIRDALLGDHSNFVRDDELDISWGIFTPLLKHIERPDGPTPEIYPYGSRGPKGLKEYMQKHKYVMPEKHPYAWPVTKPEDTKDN
Protocol: as §1, §2
(§3) Site directed mutagenesis reactions were performed in the same manner for all mutations, and for mutants which include more than one mutation, each mutation was performed sequentially. About 50 ng of plasmid DNA was added to 1×Pfu Ultra II buffer, 0.3 mM dNTPs, […] site directed mutagenesis specific primers, and 1 U Pfu Ultra II polymerase (Agilent, La Jolla, Calif.) in a 50 μl reaction mix. The reaction was cycled at 95° C. for 10 minutes, followed by 15 rounds of 95° C. for 15 seconds, 55° C. for 40 seconds, and 72° C. for 3 minutes. A final 10 minute extension reaction at 72° C. was also included. The PCR reaction mixture was then digested with 30 U of Dpnl for about 2 hours and 5 μl of the digested PCR reaction mixture was used to transform competent DH5α (Zymo Research, Orange, Calif.) and plated onto LB plates containing the appropriate antibiotics. The table below lists mutants generated in a first round of mutagenesis.

[3] = target: S. cerevisiae ZWF1 (glucose-6-phosphate dehydrogenase) variant A24G/T28G (mutant 2) (Saccharomyces cerevisiae, UniProt P11412, A24G/T28G); assay: as above; format: biochemical; settings: preliminary cofactor phenotype
Chain of S. cerevisiae ZWF1 (glucose-6-phosphate dehydrogenase) variant A24G/T28G (mutant 2) (P11412 whole entry A24G/T28G): as the sequence (P11412 whole entry A24G) above, with T28G counted along it
Protocol: as §1, §2, §3

[4] = target: S. cerevisiae ZWF1 (glucose-6-phosphate dehydrogenase) variant A51N (mutant 3) (Saccharomyces cerevisiae, UniProt P11412, A51N); assay: as above; format: biochemical; settings: preliminary cofactor phenotype
Chain of S. cerevisiae ZWF1 (glucose-6-phosphate dehydrogenase) variant A51N (mutant 3) (P11412 whole entry A51N): as the sequence (P11412 whole entry A24G) above, with G24A, A51N counted along it
Protocol: as §1, §2, §3

[5] = target: S. cerevisiae ZWF1 (glucose-6-phosphate dehydrogenase) variant F33Y (mutant 8) (Saccharomyces cerevisiae, UniProt P11412, F33Y); assay: as above; format: biochemical; settings: preliminary cofactor phenotype
Chain of S. cerevisiae ZWF1 (glucose-6-phosphate dehydrogenase) variant F33Y (mutant 8) (P11412 whole entry F33Y): as the sequence (P11412 whole entry A24G) above, with G24A, F33Y counted along it
Protocol: as §1, §2, §3

[6] = target: S. cerevisiae ZWF1 (glucose-6-phosphate dehydrogenase) variant K46R (mutant 6) (Saccharomyces cerevisiae, UniProt P11412, K46R); assay: as above; format: biochemical; settings: preliminary cofactor phenotype
Chain of S. cerevisiae ZWF1 (glucose-6-phosphate dehydrogenase) variant K46R (mutant 6) (P11412 whole entry K46R): as the sequence (P11412 whole entry A24G) above, with G24A, K46R counted along it
Protocol: as §1, §2, §3

[7] = target: S. cerevisiae ZWF1 (glucose-6-phosphate dehydrogenase) variant T28F (mutant 5) (Saccharomyces cerevisiae, UniProt P11412, T28F); assay: as above; format: biochemical; settings: preliminary cofactor phenotype
Chain of S. cerevisiae ZWF1 (glucose-6-phosphate dehydrogenase) variant T28F (mutant 5) (P11412 whole entry T28F): as the sequence (P11412 whole entry A24G) above, with G24A, T28F counted along it
Protocol: as §1, §2, §3

[8] = target: S. cerevisiae ZWF1 (glucose-6-phosphate dehydrogenase) variant Y40L (mutant 7) (Saccharomyces cerevisiae, UniProt P11412, Y40L); assay: as above; format: biochemical; settings: preliminary cofactor phenotype
Chain of S. cerevisiae ZWF1 (glucose-6-phosphate dehydrogenase) variant Y40L (mutant 7) (P11412 whole entry Y40L): as the sequence (P11412 whole entry A24G) above, with G24A, Y40L counted along it
Protocol: as §1, §2, §3

[9] = substrate: OC1OC[C@@H](O)[C@H](O)[C@H]1O; assay: purified protein, by the assay type; format: biochemical, Ruminococcus flavefaciens / Piromyces; settings: other: xylose 40-500 mM, pH 7.5, about 30° C.
Text: To generate the chimeric XI-Rp10 gene, the 5′ primer KAS/XI-R-P6-10 and 3′ primer KAS/3-XI-RF-NATIVE were first used to add nucleotides 16-30 from the XI-P gene to the 5′ end of the XI-R gene keeping the remainder of the XI-R gene in-frame. […] Following PCR purification of the resulting XI-Rp6-10 amplified product, 5′ primer KAS/XI-R-P1-10 and either the 3′ primer KAS/3-XI-RF-NATIVE or the 3′ primer KAS/3-XI-RF-NATIVE-HIS oligonucleotides were used to add additional sequences.

[10] = substrate: OC1OC[C@@H](O)[C@H](O)[C@H]1O; assay: cells, lysate or membranes; format: biochemical, Ruminococcus flavefaciens; settings: other: xylose about 40 to about 500 mM, pH 7.5, about 30° C.
Protocol: A series of specific point mutations were made to the “hot rod” Ruminococcus xylose isomerase gene using site-directed mutagenesis.
Site directed mutagenesis was performed as follows: About 50 ng of template DNA was added to 1×Pfu Ultra II buffer, 0.3 mM dNTPs, […] of the relevant mutagenesis primers depending on the mutant being constructed and 1 U Pfu Ultra 11 polymerase (Agilent, La Jolla, Calif.) in a 50 μl reaction mix. The “hot rod” Ruminococcus xylose isomerase gene was used as the template DNA for constructing single point mutation variants. Previously engineered mutants sometimes were used as “template” DNA to generate other mutants. Each reaction was PCR cycled as follows: 95° C. 10 minutes followed by 30 rounds of 95° C. for 20 seconds, 55° C. for 30 seconds, and 72° C. for 5 minutes. A final 5 minute extension reaction at 72° C. was also included. Following PCR, 1.5 μl of Dpnl (NEB, Ipswich, Mass.) was added and allowed to digest the reaction mixture for 1 to 1.5 hours at 37° C. 5 μl of this mixture was then used to transform NEB-5a cells (NEB, Ipswich, Mass.) and plated onto LB media with ampicillin (100 μg/ml). (Table below discloses SEQ ID NOS 229-256, respectively, in order of appearance)

[11] = substrate: OC1OC[C@@H](O)[C@H](O)[C@H]1O; assay: purified protein, by the assay type; format: biochemical, Ruminococcus flavefaciens / Piromyces; settings: other: xylose 40-500 mM, pH 7.5, about 30° C.; remark: listed apart in the source
Text: Following PCR purification of the resulting XI-Rp6-15 amplified product, 5′ primer KAS/XI-R-P1-15 either 3′ primer KAS/3-XI-RF-NATIVE or 3′ primer KAS/3-XI-RF-NATIVE-HIS oligonucleotides were used to add additional sequences.

[12] = substrate: OC1OC[C@@H](O)[C@H](O)[C@H]1O; assay: purified protein, by the assay type; format: biochemical, Ruminococcus flavefaciens / Piromyces; settings: other: xylose 40-500 mM, pH 7.5, about 30° C.; remark: listed apart in the source
Protocol: Approximately 20 μg of soluble whole cell extract from each transformed cell line was prepared using Y-PER plus reagent as described above was incubated in a solution containing about 100 mM Tris, pH 7.5, 10 mM MgCl2, 0.15 mM NADH (Sigma, St. Louis, Mo.), and 2 U sorbitol dehydrogenase (SDH) (Roche, Indianapolis, Ind.) at about 30° C. […] A Beckman DU-800 spectrophotometer was utilized with an Enzyme Mechanism software package (Beckman Coulter, Inc, Brea, Calif.), and the change in the A340 was monitored for 2-3 minutes.

Chain of S. cerevisiae ZWF1 variant A51D (mutant 4) (P11412 whole entry A51D): as the sequence (P11412 whole entry A24G) above, with G24A, A51D counted along it

NC(=O)c1ccc[n+]([C@@H]2O[C@H](COP(=O)(O)OP(=O)(O)OC[C@H]3O[C@@H](n4cnc5c(N)ncnc54)[C@H](O)[C@@H]3O)[C@@H](O)[C@H]2O)c1 [NAD+]
NAD+ usage [1]: Yes
NAD+ usage [2]: No
NAD+ usage [3]: No
NAD+ usage [4]: No
NAD+ usage [5]: No
NAD+ usage [6]: No
NAD+ usage [7]: No
NAD+ usage [8]: No

NC(=O)c1ccc[n+]([C@@H]2O[C@H](COP(=O)(O)OP(=O)(O)OC[C@H]3O[C@@H](n4cnc5c(N)ncnc54)[C@H](OP(=O)(O)O)[C@@H]3O)[C@@H](O)[C@H]2O)c1 [NADP+]
NADP+ usage [1]: No
NADP+ usage [2]: Yes
NADP+ usage [3]: No
NADP+ usage [4]: Yes
NADP+ usage [5]: Yes
NADP+ usage [6]: Yes
NADP+ usage [7]: Yes
NADP+ usage [8]: Yes

B1: Ruminococcus flavefaciens xylose isomerase chimera XI-Rp10 (first 10 amino acids of Piromyces xylose isomerase), SEQ ID NO: 58 (Ruminococcus flavefaciens; … (protein)
chain: MAKEYFPQIQQYQGPKSTDPLSFKYYNPEEVINGKTMREHLKFALSWWHTMGGDGTDMFGCGTTDKTWGQSDPAARAKAKVDAAFEIMDKLSIDYYCFHDRDLSPEYGSLKATNDQLDIVTDYIKEKQGDKFKCLWGTAKCFDHPRFMHGAGTSPSADVFAFSAAQIKKALESTVKLGGNGYVFWGGREGYETLLNTNMGLELDNMARLMKMAVEYGRSIGFKGDFYIEPKPKEPTKHQYDFDTATVLGFLRKYGLDKDFKMNIEANHATLAQHTFQHELRVARDNGVFGSIDANQGDVLLGWDTDQFPTNIYDTTMCMYEVIKAGGFTNGGLNFDAKARRGSFTPEDIFYSYIAGMDAFALGFRAALKLIEDGRIDKFVADRYASWNTGIGADIIAGKADFASLEKYALEKGEVTASLSSGRQEMLESIVNNVLFSL
Km [9]: 75.8 mM

B2: Ruminococcus flavefaciens xylose isomerase (hot rod) variant G179A (Ruminococcus flavefaciens; G179A) (protein)
chain: B1 chain with A2E, K3F, E4F, Y5S, F6N, P7I, Q8G, I9K, Q10I, G179A
notes: expressed in S. cerevisiae, soluble extract
Km [10]: 83.82 mM

B3: Ruminococcus flavefaciens xylose isomerase chimera XI-Rp15 (first 15 amino acids of Piromyces xylose isomerase), SEQ ID NO: 60 (Ruminococcus flavefaciens; … (protein)
chain: B1 chain with Q11K, Y12I, Q13K, G14F, P15E
Km [11]: 49.3 mM

B4: Ruminococcus flavefaciens xylose isomerase chimera XI-Rp5 (first 5 amino acids of Piromyces xylose isomerase), SEQ ID NO: 56 (Ruminococcus flavefaciens; … (protein)
chain: MAKEYFSNIGKIQYQGPKSTDPLSFKYYNPEEVINGKTMREHLKFALSWWHTMGGDGTDMFGCGTTDKTWGQSDPAARAKAKVDAAFEIMDKLSIDYYCFHDRDLSPEYGSLKATNDQLDIVTDYIKEKQGDKFKCLWGTAKCFDHPRFMHGAGTSPSADVFAFSAAQIKKALESTVKLGGNGYVFWGGREGYETLLNTNMGLELDNMARLMKMAVEYGRSIGFKGDFYIEPKPKEPTKHQYDFDTATVLGFLRKYGLDKDFKMNIEANHATLAQHTFQHELRVARDNGVFGSIDANQGDVLLGWDTDQFPTNIYDTTMCMYEVIKAGGFTNGGLNFDAKARRGSFTPEDIFYSYIAGMDAFALGFRAALKLIEDGRIDKFVADRYASWNTGIGADIIAGKADFASLEKYALEKGEVTASLSSGRQEMLESIVNNVLFSL
notes: E2 XI (CAB76571.1; MAKEY) on Ruminococcus XI
Km [12]: 66.5 mM
